Earlier results on 30 compounds are cited in patent US8871208B2, “11-β-hydroxysteroid dehydrogenase type 1 (11β-HSD1) inhibitors and uses thereof” (AbbVie Inc., priority 2009, dated 2014).

Broadly, the IC50 is the concentration that inhibits the measured activity by half.

Like-named read-outs stand apart in the source and are kept apart here.

The data set has as its target 11βHSD-1 (Homo sapiens, UniProt P28845). As to conditions: cited from earlier work.
Setting [1] is: Table 3, Boyle et al., Expert Opin. Ther. Patents 19(6), 801-825 (2009), read-out: IC50.
Setting [2] is: Table 1, Barf et al., Drugs of the Future 31(3), 231-243 (2006), read-out: IC50.
Setting [3] is: Table 5, Boyle, Current Opinion in Drug Discovery & Development 2008, 11(4), 495-511, read-out: IC50.
The mark [4] stands for this setting: Table 4, Webster et al., Expert Opin. Ther. Patents 17(12), 1407-1422 (2007), read-out: IC50.

Sequence of 11βHSD-1 (P28845 whole entry, species assumed): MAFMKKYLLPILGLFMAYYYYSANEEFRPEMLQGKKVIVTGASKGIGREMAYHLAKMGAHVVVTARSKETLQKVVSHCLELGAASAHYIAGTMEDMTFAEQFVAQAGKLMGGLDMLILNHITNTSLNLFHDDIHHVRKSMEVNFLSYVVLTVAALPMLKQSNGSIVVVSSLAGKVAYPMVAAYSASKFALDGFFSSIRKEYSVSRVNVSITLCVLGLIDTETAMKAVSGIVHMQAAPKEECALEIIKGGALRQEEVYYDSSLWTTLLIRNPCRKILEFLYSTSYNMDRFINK

`O=C1[C@H](Cc2c(Cl)cc(-c3ccc(F)cc3)cc2Cl)CCN1C1CCc2n[nH]cc2C1` (stereo partly drawn) [Example 570]: the half-maximal inhibitory concentration (IC50) under setting [1] is 0.276 µM.

For `C[C@H](CCC(=O)O)[C@H]1CC[C@H]2[C@@H]3[C@H](O)C[C@@H]4C[C@H](O)CC[C@]4(C)[C@H]3CC[C@]12C` [Example 490], the IC50 is 2.8 µM.

`CC(C)(C(=O)NC1C2CC3CC(C2)CC1C3)c1ccc(F)cc1` (stereo not drawn) [Example 512]: under setting [2], the half-inhibitory concentration (IC50) was below 1 µM.

Take `CCOc1cc(NC(C)=O)ccc1-c1nnc(N(C)c2ccc(F)cc2)n1C` [Example 532]: under setting [1], the half-inhibitory concentration (IC50) is 0.0034 µM.

Consider `O=C1OC2(CCN(C(=O)Nc3ccc(Cl)cc3F)C2)c2ccccc21` (stereo not drawn) [Example 581], for which the IC50 under setting [1] was below 20 µM.

Turning to `O=C(N[C@H]1CCCN(S(=O)(=O)c2ccc(F)c3ccccc23)C1)N1CCC(O)CC1` [Example 703], the IC50 under setting [3] is 0.013 µM.

For `C[C@H](NC1=NC(=O)C(C)(C(F)(F)F)S1)c1ccccc1F` (stereo partly drawn) [Example 527], the concentration for half-maximal inhibition (IC50) was 0.033 µM.

On to `O=S(=O)(Cc1ccc(C(F)(F)F)cc1)N1CCN(c2ncccc2C(F)(F)F)CC1` [Example 598], for which the IC50 under setting [1] is 0.43 µM.

Consider `O=C(N[C@H]1CCCN(S(=O)(=O)c2ccc(F)c3ccccc23)C1)N1C2CCC1CC(O)C2` (stereo partly drawn) [Example 601], for which, where the note is “read-out: IC50”, the IC50 is 0.003 µM.

Take `O=C1OC2(CCN(C(=O)C(O)c3ccc(Br)cc3F)C2)c2ccccc21` (stereo not drawn) [Example 580]: under setting [1], the half-maximal inhibitory concentration (IC50) was below 1 µM.

Turning to `O=C(c1ccc(-c2cc(Cl)c(C[C@@H]3CCN(C4CCCCC4)C3=O)c(Cl)c2)cc1)N1CCN(CCF)CC1` [Example 564], the IC50 under setting [1] is 0.115 µM.

In the case of `CC1(C2CC2)CN(C2C3CC4CC2CC(O)(C4)C3)C(=O)N1C1CC1` (stereo not drawn) [Example 557], the half-maximal inhibitory concentration (IC50) under setting [1] is 0.003 µM.

Consider `CCCC(=O)Cc1csc(NS(=O)(=O)c2cccc(Cl)c2C)n1` [Example 502], for which, under setting [2], the half-maximal inhibitory concentration (IC50) is 0.014 µM.

Consider `O=S(=O)(Nc1nc(C23CC4CC(CC(C4)C2)C3)cs1)c1cc2ccccc2s1` [Example 682], for which the 50% inhibitory concentration (IC50) under setting [4] was 0.042 µM.

As to `CCSc1nc(N2CCOC(C(=O)O)C2)ccc1C(=O)NC1C2CC3CC(C2)CC1C3` (stereo not drawn) [Example 547], the 50% inhibitory concentration (IC50) under setting [1] is 0.006 µM.

As to `O=C(c1ccc(-c2cc(Cl)c(CN3CCC(C4CCCCC4)C3=O)c(Cl)c2)cc1)N1CCN(CCF)CC1` (stereo not drawn) [Example 572], under setting [1], the IC50 is 0.0154 µM.

On to `Cc1ccc(S(=O)(=O)N2CCCN(c3c(Cl)cncc3Cl)CC2)cc1` [Example 597], for which, under setting [1], the half-inhibitory concentration (IC50) is 0.91 µM.

As for `O=C(c1ccc(OC(F)(F)F)cc1)C1CCN(C(=O)c2ccc(F)cc2)CC1` [Example 523], the IC50 under setting [2] was 0.05 µM.

As for `C[C@@H]1CN(c2ccc(C(N)(C(F)(F)F)C(F)(F)F)cc2)CCN1S(=O)(=O)c1ccc(C(C)(O)C(F)(F)F)cc1` (stereo partly drawn) [Example 596], under setting [1], the IC50 was below 0.01 µM.

For `Cc1c(Cl)cccc1S(=O)(=O)Nc1nc(CC(=O)N2CCN(C)CC2)cs1` [Example 500], the IC50 was 0.096 µM.

On to `O=S(=O)(Nc1ccnc(C2CC2)n1)c1ccc2ccccc2c1` [Example 680], for which the IC50 under setting [4] is 0.02 µM.

`CC1(C)CC2CC(C)(CN2C(=O)c2ccc(C(C)(C)O)cc2)C1` (stereo not drawn) [Example 696]: the half-maximal inhibitory concentration (IC50) under setting [3] is 0.007 µM.

As for `C[C@@H](c1ccc(Cl)cc1)N1CCN([C@H]2C3CC4CC2C[C@](O)(C4)C3)C1=O` [Example 559], the IC50 under setting [1] was 0.012 µM.

Consider `O=C(CS(=O)(=O)N1CCCC1)c1ccc(F)cc1` [Example 519], for which, under setting [2], the IC50 was 0.094 µM.

On to `N#Cc1ccccc1CSc1nc(O)c(Cl)c2ccc(Cl)cc12` [Example 537], for which, under setting [1], the IC50 was 0.002 µM.

In the case of `O=C(NC1C2CC3CC1CC(O)(C3)C2)c1ccc(Oc2ccc(Cl)cn2)cc1` (stereo not drawn) [Example 551], the IC50 under setting [1] is around 0.07 µM.

As for `O=C(N1CCC(c2cn[nH]c2)CC1)N1CCOc2ccc(Cl)cc21` [Example 583], the IC50 under setting [1] is 0.039 µM.

Regarding `O=C(c1cnoc1-c1ccc(F)cc1)N1CCC(c2ccccc2)C1` (stereo not drawn) [Example 700], under “Table 5, Boyle, Current Opinion in Drug Discovery & Development 2008, 11(4), 495-511”, the IC50 is on record as 8 − 10,000 nM.

Regarding `CC(=O)Nc1ccc(OCC(=O)c2ccc(Cl)cc2)cc1` [Example 521], the concentration for half-maximal inhibition (IC50) under setting [2] was 0.153 µM.

As to `CC(C)c1nsc(NS(=O)(=O)c2ccc(Oc3ccccc3)cc2)n1` [Example 503], the half-maximal inhibitory concentration (IC50) under setting [2] is 0.219 µM.
